Structures are written as SMILES.

In the assay the target is PAR4 (Homo sapiens (Human), UniProt Q96RI0). Briefly: FLIPR assay in PAR4-expressing HEK293 cells (calcium mobilization). It is filed as cell-based. The note with it: PAR4 antagonist activity, FLIPR assay as described in Example A. A general note: Calcium assays in cells follow changes in intracellular calcium, usually with a dye or a luminescent sensor.
Chain of PAR4 (Q96RI0 18-385): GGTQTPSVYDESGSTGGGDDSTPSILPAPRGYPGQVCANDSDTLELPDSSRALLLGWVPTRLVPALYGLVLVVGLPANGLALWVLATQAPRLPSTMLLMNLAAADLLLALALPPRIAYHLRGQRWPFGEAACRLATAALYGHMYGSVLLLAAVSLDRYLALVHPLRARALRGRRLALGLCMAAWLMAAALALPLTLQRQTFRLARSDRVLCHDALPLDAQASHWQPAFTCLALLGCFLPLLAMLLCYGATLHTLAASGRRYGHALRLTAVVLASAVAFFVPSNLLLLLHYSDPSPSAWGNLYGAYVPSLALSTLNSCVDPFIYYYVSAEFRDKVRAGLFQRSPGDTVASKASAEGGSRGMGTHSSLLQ
One may read the IC50 as the point on the concentration scale where inhibition reaches its midpoint. In the case of `COc1cc(OCc2cccc(-c3ccc(OC4CCCCO4)cc3)c2)c2cc(-c3cn4nc(OC)sc4n3)oc2c1` (stereo not drawn) [Example 88], the 50% inhibitory concentration (IC50) was found to be 1.1 nM.
`COc1cc(OCc2cccc(-c3ccc(OC4CCCCO4)cn3)c2)c2cc(-c3cn4nc(OC)sc4n3)oc2c1` (stereo not drawn) [Example 89]: the IC50 amounted to 0.79 nM.
Under `COc1cc(OCc2cccc(-c3ccc(O)cc3)c2)c2cc(-c3cn4nc(OC)sc4n3)oc2c1` [Example 90] stands 4.91 nM; under `COc1cc(OCc2cccc(-c3ccc(O)cn3)c2)c2cc(-c3cn4nc(OC)sc4n3)oc2c1` [Example 91], 9.05 nM.
Then `COc1cc(OCc2cccc(C3CCOCC3)c2)c2cc(-c3cn4nc(OC)sc4n3)oc2c1` [Example 92, 2-Methoxy-6-(6-methoxy-4-((3-(tetrahydro-2H-pyran-4-yl)benzyl)oxy)benzofuran-2-yl)imidazo[2,1-b][1,3,4]thiadiazole], with 0.72 nM.
With `COc1cc(OCc2cccc(C3=CCCCC3)c2)c2cc(-c3cn4nc(OC)sc4n3)oc2c1` [Example 94], the concentration for half-maximal inhibition (IC50) was 2.21 nM.
For `COc1cc(OCc2cccc(C3CCCCC3)c2)c2cc(-c3cn4nc(OC)sc4n3)oc2c1` [Example 95], the IC50 came to 0.69 nM.
As to `COc1cc(OCc2cccc(-c3ccc(C(=O)N(C)C)cc3)n2)c2cc(-c3cn4nc(OC)sc4n3)oc2c1` [Example 96, 4-(6-(((6-Methoxy-2-(2-methoxyimidazo[2,1-b][1,3,4]thiadiazol-6-yl)benzofuran-4-yl)oxy)methyl)pyridin-2-yl)-N,N-dimethylbenzamide], the IC50 turned out to be 0.23 nM.
Then `COc1cc(OCc2ccnc(-c3cccc(C#N)c3)n2)c2cc(-c3cn4nc(OC)sc4n3)oc2c1` [Example 99], with 48.7 nM; and `COc1cc(OCc2ccnc(-c3csc(C)n3)n2)c2cc(-c3cn4nc(OC)sc4n3)oc2c1` [Example 102], with 0.72 nM; and `COc1cc(OCc2ccnc(C3CC3)n2)c2cc(-c3cn4nc(OC)sc4n3)oc2c1` [Example 103], with 1.39 nM.
As to `COc1cc(OCc2ccnc(C3COc4ccccc4O3)n2)c2cc(-c3cn4nc(OC)sc4n3)oc2c1` (stereo not drawn) [Example 104], the IC50 was 0.85 nM.
In the case of `COc1cc(OCc2ccnc(C3(c4ccccc4)CC3)n2)c2cc(-c3cn4nc(OC)sc4n3)oc2c1` [Example 105], the 50% inhibitory concentration (IC50) amounted to 1.06 nM.
`COc1cc(OCc2cccc(-c3nc(CO)c(C)s3)c2)c2cc(-c3cn4nc(OC)sc4n3)oc2c1` [Example 106, (2-(3-(((6-Methoxy-2-(2-methoxyimidazo[2,1-b][1,3,4]thiadiazol-6-yl)benzofuran-4-yl)oxy)methyl)phenyl)-5-methylthiazol-4-yl)methanol]: the half-maximal inhibitory concentration (IC50) came to 1.59 nM.
Take `COc1ncc(-c2cccc(COc3cc(Cl)cc4oc(-c5cn6nc(OC)sc6n5)cc34)c2)cn1` [Example 107, 6-(6-Chloro-4-((3-(2-methoxypyrimidin-5-yl)benzyl)oxy)benzofuran-2-yl)-2-methoxyimidazo[2,1-b][1,3,4]thiadiazole]: the half-maximal inhibitory concentration (IC50) came out at 1.09 nM.
Then `COc1cnc(-c2cccc(COc3cc(Cl)cc4oc(-c5cn6nc(OC)sc6n5)cc34)c2)cn1` [Example 108, 6-(6-Chloro-4-((3-(5-methoxypyrazin-2-yl)benzyl)oxy)benzofuran-2-yl)-2-methoxyimidazo[2,1-b][1,3,4]thiadiazole], with 1.43 nM.
Then `COc1cc(OCc2cccc(C3(O)CCOCC3)n2)c2cc(-c3cn4nc(OC)sc4n3)oc2c1` [Example 109, 4-(6-(((6-Methoxy-2-(2-methoxyimidazo[2,1-b][1,3,4]thiadiazol-6-yl)benzofuran-4-yl)oxy)methyl)pyridin-2-yl)tetrahydro-2H-pyran-4-ol], with 0.45 nM.
For the molecule `COc1cc(OCc2cccc(C3(OC)CCOCC3)n2)c2cc(-c3cn4nc(OC)sc4n3)oc2c1` [Example 111, 2-Methoxy-6-(6-methoxy-4-((6-(4-methoxytetrahydro-2H-pyran-4-yl)pyridin-2-yl)methoxy)benzofuran-2-yl)imidazo[2,1-b][1,3,4]thiadiazole], the IC50 is 0.23 nM.

These data come from US9518064B2, “Imidazothiadiazole and imidazopyridazine derivatives as protease activated receptor 4 (PAR4) inhibitors for treating platelet aggregation” (BRISTOL-MYERS SQUIBB COMPANY, priority 2012, dated 2016).
